Results published in patent publication US8058311B2, “Imaging 18F or 11C-labelled alkylthiophenyl guanidines” (Hammersmith Imanet Limited, priority 2005, dated 2011).

Assay: Biodistribution: radioactivity in rat peripheral organs and body fluids after intravenous injection
Type: in vivo
Method: N-(2-Chloro-5-(2-[^18F]fluoro-ethylthio))-phenyl-N′-(3-methylthio)-phenyl-N′-methylguanidine was prepared according to Example 4 (synthesis formulation ˜3% ethanol in 0.9% w/v saline solution) with a radiochemical purity of ˜99% and, at time of injection, the specific activity ranged from 4-16 GBq/nmol^−1. Biodistribution and blood data were from 11 adult male Sprague-Dawley rats (body weight range, 269 to 329 g; mean±S.E.=300±18 g). N-(2-Chloro-5-(2-[^18F]fluoro-ethylthio))-phenyl-N′-(3-methylthio)-phenyl-N′-methylguanidine was injected directly into the tail vein of each rat whilst under isoflurane anaesthesia. Each animal was then allowed to recover from anaesthesia. At designated times after injection, rats were sacrificed by cervical dislocation under anaesthesia and brain and body tissues were rapidly sampled.
The data were acquired using two syntheses. Rats were given an average of 86 MBq (85.3 MBq for first experimental day and 87.3 MBq for the second experimental day), in a volume of 0.20 ml (synthesis formulation ˜3% alcohol), via direct intravenous injection through the tail vein. The mass of co-injected N-(2-Chloro-5-(2-[^18F]fluoro-ethylthio))-phenyl-N′-(3-methylthio)-phenyl-N′-methylguanidine ranged from 0.7-2.9 nmol.kg^−1. Details of the methodology, together with processing and counting of the samples can be found in Hume et al., Nucl. Med. Biol. (1991) 18: 339-351. Data were normalised for injected radioactivity and body weight, giving: ‘uptake units’=(cpm.g^−1 wet weight tissue)·(injected cpm.g^−1 body weight)^−1 Results
Radioactivity concentration data are additionally collated in Tables 1 (peripheral tissue) and 2 (brain). As metabolite studies were not carried out, the proportion of the total radioactivity reflecting label associated with parent N-(2-Chloro-5-(2-[^18F]fluoro-ethylthio))-phenyl-N′-(3-methylthio)-phenyl-N′-methylguanidine is not known. Note, Blood and plasma samples were collected post-mortem from the heart ventricle.

- radioactivity in bone (2 min, n = 1): 1.355 uptake units
- radioactivity in fat (2 min, n = 1): 0.199 uptake units
- radioactivity in heart (ventricle) (2 min, n = 1): 6.412 uptake units
- radioactivity in kidney (2 min, n = 1): 12.975 uptake units
- radioactivity in large intestinal content (2 min, n = 1): 0.113 uptake units
- radioactivity in large intestine (2 min, n = 1): 3.338 uptake units
- radioactivity in liver (2 min, n = 1): 5.251 uptake units
- radioactivity in lung (2 min, n = 1): 32.475 uptake units
- radioactivity in skeletal muscle (2 min, n = 1): 0.288 uptake units
- radioactivity in skin (2 min, n = 1): 0.338 uptake units
- radioactivity in small intestinal content (2 min, n = 1): 1.390 uptake units
- radioactivity in small intestine (2 min, n = 1): 4.537 uptake units
- radioactivity in spleen (2 min, n = 1): 3.985 uptake units
- radioactivity in stomach (2 min, n = 1): 0.843 uptake units
- radioactivity in testis (2 min, n = 1): 0.456 uptake units
- radioactivity in urine (2 min, n = 1): 0.109 uptake units
- radioactivity in bone (5 min, n = 1): 1.440 uptake units
- radioactivity in fat (5 min, n = 1): 0.814 uptake units
- radioactivity in heart (ventricle) (5 min, n = 1): 2.761 uptake units
- radioactivity in kidney (5 min, n = 1): 10.113 uptake units
- radioactivity in large intestinal content (5 min, n = 1): 0.148 uptake units
- radioactivity in large intestine (5 min, n = 1): 3.442 uptake units
- radioactivity in liver (5 min, n = 1): 5.648 uptake units
- radioactivity in lung (5 min, n = 1): 25.015 uptake units
- radioactivity in skeletal muscle (5 min, n = 1): 0.517 uptake units
- radioactivity in skin (5 min, n = 1): 0.517 uptake units
- radioactivity in small intestinal content (5 min, n = 1): 1.449 uptake units
- radioactivity in small intestine (5 min, n = 1): 3.845 uptake units
- radioactivity in spleen (5 min, n = 1): 3.676 uptake units
- radioactivity in stomach (5 min, n = 1): 1.245 uptake units
- radioactivity in testis (5 min, n = 1): 0.528 uptake units
- radioactivity in urine (5 min, n = 1): 16.760 uptake units
- radioactivity in bone (10 min, n = 2): 0.793 uptake units
- radioactivity in fat (10 min, n = 2): 0.234 uptake units
- radioactivity in heart (ventricle) (10 min, n = 2): 1.119 uptake units
- radioactivity in kidney (10 min, n = 2): 3.931 uptake units
- radioactivity in large intestinal content (10 min, n = 2): 0.109 uptake units
- radioactivity in large intestine (10 min, n = 2): 1.359 uptake units
- radioactivity in liver (10 min, n = 2): 3.199 uptake units
- radioactivity in lung (10 min, n = 2): 10.229 uptake units
- radioactivity in skeletal muscle (10 min, n = 2): 0.391 uptake units
- radioactivity in skin (10 min, n = 2): 0.248 uptake units
- radioactivity in small intestinal content (10 min, n = 2): 1.162 uptake units
- radioactivity in small intestine (10 min, n = 2): 1.618 uptake units
- radioactivity in spleen (10 min, n = 2): 3.008 uptake units
- radioactivity in stomach (10 min, n = 2): 0.532 uptake units
- radioactivity in testis (10 min, n = 2): 0.363 uptake units
- radioactivity in urine (10 min, n = 2): 13.589 uptake units
- radioactivity in bone (30 min, n = 3): 1.014 ± 0.019 uptake units
- radioactivity in fat (30 min, n = 3): 0.613 ± 0.175 uptake units
- radioactivity in heart (ventricle) (30 min, n = 3): 0.740 ± 0.019 uptake units
- radioactivity in kidney (30 min, n = 3): 3.287 ± 0.208 uptake units
- radioactivity in large intestinal content (30 min, n = 3): 0.445 ± 0.035 uptake units
- radioactivity in large intestine (30 min, n = 3): 1.619 ± 0.494 uptake units
- radioactivity in liver (30 min, n = 3): 6.023 ± 0.699 uptake units
- radioactivity in lung (30 min, n = 3): 3.786 ± 0.292 uptake units
- radioactivity in skeletal muscle (30 min, n = 3): 0.487 ± 0.036 uptake units
- radioactivity in skin (30 min, n = 3): 0.491 ± 0.019 uptake units
- radioactivity in small intestinal content (30 min, n = 3): 6.002 ± 3.338 uptake units
- radioactivity in small intestine (30 min, n = 3): 2.241 ± 0.617 uptake units
- radioactivity in spleen (30 min, n = 3): 2.713 ± 0.086 uptake units
- radioactivity in stomach (30 min, n = 3): 1.558 ± 0.443 uptake units
- radioactivity in testis (30 min, n = 3): 0.619 ± 0.081 uptake units
- radioactivity in urine (30 min, n = 3): 49.593 ± 30.733 uptake units
- radioactivity in bone (60 min, n = 3): 0.944 ± 0.305 uptake units
- radioactivity in fat (60 min, n = 3): 0.405 ± 0.358 uptake units
- radioactivity in heart (ventricle) (60 min, n = 3): 0.505 ± 0.104 uptake units
- radioactivity in kidney (60 min, n = 3): 2.429 ± 0.527 uptake units
- radioactivity in large intestinal content (60 min, n = 3): 1.176 ± 1.109 uptake units
- radioactivity in large intestine (60 min, n = 3): 7.291 ± 10.308 uptake units
- radioactivity in liver (60 min, n = 3): 3.659 ± 0.822 uptake units
- radioactivity in lung (60 min, n = 3): 2.387 ± 0.195 uptake units
- radioactivity in skeletal muscle (60 min, n = 3): 0.410 ± 0.096 uptake units
- radioactivity in skin (60 min, n = 3): 0.435 ± 0.109 uptake units
- radioactivity in small intestinal content (60 min, n = 3): 10.518 ± 7.766 uptake units
- radioactivity in small intestine (60 min, n = 3): 1.841 ± 0.678 uptake units
- radioactivity in spleen (60 min, n = 3): 1.675 ± 0.135 uptake units
- radioactivity in stomach (60 min, n = 3): 1.227 ± 0.351 uptake units
- radioactivity in testis (60 min, n = 3): 0.605 ± 0.150 uptake units
- radioactivity in urine (60 min, n = 3): 23.375 ± 18.208 uptake units
- radioactivity in bone (90 min, n = 1): 0.889 uptake units
- radioactivity in fat (90 min, n = 1): 0.548 uptake units
- radioactivity in heart (ventricle) (90 min, n = 1): 0.464 uptake units
- radioactivity in kidney (90 min, n = 1): 2.127 uptake units
- radioactivity in large intestinal content (90 min, n = 1): 0.764 uptake units
- radioactivity in large intestine (90 min, n = 1): 0.775 uptake units
- radioactivity in liver (90 min, n = 1): 2.856 uptake units
- radioactivity in lung (90 min, n = 1): 2.150 uptake units
- radioactivity in skeletal muscle (90 min, n = 1): 0.357 uptake units
- radioactivity in skin (90 min, n = 1): 0.387 uptake units
- radioactivity in small intestinal content (90 min, n = 1): 8.700 uptake units
- radioactivity in small intestine (90 min, n = 1): 1.942 uptake units
- radioactivity in spleen (90 min, n = 1): 1.418 uptake units
- radioactivity in stomach (90 min, n = 1): 1.103 uptake units
- radioactivity in testis (90 min, n = 1): 0.559 uptake units
- radioactivity in urine (90 min, n = 1): 26.947 uptake units
- de-fluorination (from bone uptake) (90 minutes): no evidence of de-fluorination
- uptake in lung (at 90 minutes): 2 uptake units
- initial uptake in bone (initial): 1.4
- initial uptake in lung (initial): ~30 uptake units
- initial content in skeletal muscle, skin and testis (low, retained over the course of the experiment): ~0.4 uptake units
- uptake in bone after decrease (over the 90 minutes of the experiment): ~0.8
Structure (SMILES): CSc1cccc(N(C)C(=N)Nc2cc(SCC[18F])ccc2Cl)c1 [N-(2-Chloro-5-(2-[^18F]fluoro-ethylthio))-phenyl-N′-(3-methylthio)-phenyl-N′-methylguanidine]
- peripheral clearance route: via kidney to urine and via the intestine
